Experimental data: patent publication US20120177701A1, “COMPOSITIONS COMPRISING IMMUNOSTIMULATORY NUCLEIC ACIDS AND RELATED METHODS” (priority 2010, published 2012)

Target: T1, human TLR8 (Homo sapiens, UniProt Q9NR97)
T1 construct: host or cells: HEK293 (HEK-Blue hTLR8) with NF-kB-inducible SEAP reporter
T1 sequence (Q9NR97 27-1041): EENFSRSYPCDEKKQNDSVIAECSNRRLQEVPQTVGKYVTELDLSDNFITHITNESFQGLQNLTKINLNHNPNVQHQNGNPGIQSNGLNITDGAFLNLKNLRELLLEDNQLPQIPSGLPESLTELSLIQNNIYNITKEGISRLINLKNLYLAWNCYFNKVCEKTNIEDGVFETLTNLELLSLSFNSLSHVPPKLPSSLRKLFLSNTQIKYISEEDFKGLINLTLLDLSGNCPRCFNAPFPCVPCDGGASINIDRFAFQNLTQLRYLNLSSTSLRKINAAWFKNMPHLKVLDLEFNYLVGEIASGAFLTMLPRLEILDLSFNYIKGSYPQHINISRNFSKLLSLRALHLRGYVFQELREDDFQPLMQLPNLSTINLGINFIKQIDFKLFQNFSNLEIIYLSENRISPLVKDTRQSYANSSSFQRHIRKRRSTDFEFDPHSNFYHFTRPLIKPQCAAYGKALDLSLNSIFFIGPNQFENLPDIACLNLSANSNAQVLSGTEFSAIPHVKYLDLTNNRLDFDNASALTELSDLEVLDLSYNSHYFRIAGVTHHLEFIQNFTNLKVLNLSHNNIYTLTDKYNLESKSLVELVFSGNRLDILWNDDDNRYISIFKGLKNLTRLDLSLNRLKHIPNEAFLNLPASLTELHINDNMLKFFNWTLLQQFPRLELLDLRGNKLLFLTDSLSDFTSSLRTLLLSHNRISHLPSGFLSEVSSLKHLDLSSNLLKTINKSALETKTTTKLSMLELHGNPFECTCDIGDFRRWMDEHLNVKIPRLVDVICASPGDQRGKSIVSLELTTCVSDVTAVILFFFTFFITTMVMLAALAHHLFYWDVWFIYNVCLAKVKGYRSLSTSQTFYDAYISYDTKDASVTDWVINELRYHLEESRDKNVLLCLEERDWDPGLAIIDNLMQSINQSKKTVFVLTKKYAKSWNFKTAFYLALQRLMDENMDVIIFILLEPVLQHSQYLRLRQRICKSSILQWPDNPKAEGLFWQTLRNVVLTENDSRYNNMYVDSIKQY
Assay: HEK-Blue hTLR8 NF-kB-inducible SEAP reporter assay (TLR8 activation)
Format: cell-based

5′-GAGAUGUUAUUUUGUUUUUAAUAUUUC-3′ (phosphorothioate backbone, further chemistry not given here) [SL-0001, phosphorothioated 27-ribonucleotide from the 3′-terminus of Chikungunya virus strain TSI-GSD-218, bases 12010-12036]
TLR8 activation (fold increase of SEAP induction over the background), described in words: stronger levels of TLR8 activation | concentration at which TLR8 activation was detected starting: 40 nM
